The values that follow come from US20090082285A1, “Adiponectin expression promoter” (SAN-EI GEN F.F.I., INC., priority 2003, published 2009).

Structures are written as SMILES.

The test system of this experiment is adiponectin mRNA in epididymis adipose cells. The experiment is described as follows: Adiponectin mRNA level in isolated epididymis adipose cells (RT-PCR, gel densitometry). Format: cell-based, Wistar male rat. As to conditions: for mRNA level: adiponectin mRNA, control (DMSO) defined as 1, cultured 24 hours at 37° C.; for adiponectin mRNA level in adipose tissue (result in words): conclusion from FIG. 1 and Table 5, 100 μM or 250 μM vs DMSO control. As to the method: A Wistar male rat (body weight of 160 g) was sacrificed and its epididymis adipose tissues were excised. The epididymis adipose tissues were placed in 0.5% bovine serum albumin (BSA)/30 mM HEPES/200 nM adenosine/Krebs Ringer bicarbonate buffer(BSA-KRBH) containing 1176 units/mL of collagenase (Sigma, type II), and allowed to stand at 37° C. for 90 minutes (hereunder, 0.5% BSA/30 mM HEPES/200 nM adenosine/Krebs Ringer bicarbonate buffer is referred to as BSA-KRBH). Adipose cells were isolated from the connective tissue by the above-described operation. The isolated adipose cells were then washed with BSA-KRBH four times, and the thus-obtained adipose cells were suspended in a BSA-KRBH culture medium.
Subsequently, to the thus-obtained suspension, a solution prepared by dissolving cyanidin (Cy; manufactured by Funakoshi Co., Ltd.) or cyanidin 3-O-β-D-glucoside (hereinafter, referred to as “cyanidin 3-glucoside”)(C3G; manufactured by Funakoshi Co., Ltd.) in DMSO was added in such a manner that the final concentration of cyanidin or cyanidin 3-glucoside was 100 μM or 250 μM. The resulting solutions were cultured under 5% CO2 at 37° C. for 24 hours, and the adipose cells were then collected.
Total RNAs were extracted from the thus-obtained adipose cell using an RNA extracting reagent (ISOGEN, manufactured by Nippon Gene Co., Ltd.) by following the instruction manual (http://www.nippongene.jp/pages/products/extraction/isogen/genol. html). Using the total RNAs as a template, a reverse transcription reaction was conducted at 37° C. for 120 minutes, and the RNAs were amplified by 20 cycles of PCR (RT-PCR (Reverse transcription-polymerase chain reaction) method). Specifically, 2.5 μg of total RNAs was subjected to reverse transcription in a buffer solution comprising oligo dT primer, 1.3 mM dNTP (deoxynucleoside triphosphates, GIBCO BRL, Grand Island, N.Y.), 10 mM DTT (dithiothreitol, GIBCO BRL), and 200 U of RNase inhibitor (GIBCO BRL) using 200 U of Moloney murine leukemia virus reverse transcriptase (GIBCO BRL) at 37° C. for 120 minutes, then allowed to stand at 94° C. for 2 minutes, and the reaction was terminated. The thus-generated cDNAs were amplified in a 0.01% Tween 20/0.2 mM dNTP/2 mM MgCl2/75 mM Tris buffer (pH 8.8) containing 1 μM 5′-primer([…]) and 3′-primer([…]), using 1.5 U of Taq DNA polymerase (MBI Fermentas, Lithuania) by repeating 20 cycles of PCR (each cycle comprised a denaturation step at 94° C. for 30 seconds, an annealing step. at 58° C. for 30 seconds, and an extension reaction step at 72° C. for 30 seconds), and then allowed to stand at 72° C. for 10 minutes.
The RT-PCR product (502 bp) was applied to a 1% agarose gel with DNA size markers, and subjected to electrophoresis in a Tris-Acetate-EDTA buffer at 100 V for about 30 minutes. After conducting electrophoresis, the gel was dipped in an ethidium bromide solution, shaken for 15 minutes, and then stained. Subsequently, the fluorescence intensity of the gel was measured using a gel analysis program (ATTO Lane Analyzer 10H Software Densitograph provided by Atto Corporation).
Note that, in FIG. 1, the control is epididymis adipose cells to which only DMSO was added.

With `OCC1OC(Oc2cc3c(O)cc(O)cc3[o+]c2-c2ccc(O)c(O)c2)C(O)C(O)C1O` [Cyanidin 3-glucoside, cyanidin 3-O-β-D-glucoside], the “adiponectin mRNA level in adipose tissue (result in words)” value is given as “increased adiponectin mRNA level”. This compound also came in with a mRNA level (100 μM) of 2.7. Also, the mRNA level (250 μM) was 2.1.

Turning to `Oc1cc(O)c2cc(O)c(-c3ccc(O)c(O)c3)[o+]c2c1` [Cyanidin, cyanidin], the “adiponectin mRNA level in adipose tissue (result in words)” value was “increased adiponectin mRNA level”. Further, the mRNA level (100 μM) stood at 2.1. For the setting “250 μM”, the mRNA level was 2.2.
